# Measured values taken from patent US12533357B2, “Treatment for acute myeloid leukemia or myelodysplastic syndrome” (UNIVERSITY HEALTH NETWORK, priority 2019, dated 2026).
# pIC50: −log10 of the molar value.
# How the values were obtained:
# MOLT-4 = test: In vitro cytotoxicity (IC50) assay, alamarBlue; assay type: cell-based, human; conditions: MOLT-4, T-ALL
# Experimental: (§1) Cells were seeded in triplicate at 10,000 per 80 uL, into 96-well plates 24 hours before compound overlay and cultured at 37° C. and 5% CO2. Compound (I) was prepared as a 10 mM stock in 100% DMSO and diluted with RPMI 1640 cell growth medium containing 10% FBS such that the final concentrations ranged from 50 pM to 15 uM. Aliquots (20 uL) from each concentration were overlaid to 80 uL of pre-seeded cells to achieve final concentrations of 10 pM to 3 uM. After 3 days, cell viability in each well was assessed by alamarBlue assay according to the manufacturer's instruction (ThermoFisher Scientific). Absorbance was read at 570 nm using a SpectraPlus microplate reader (Molecular Devices Corporation). alamarBlue absorbance values were adjusted by subtracting the average of the baseline readings from untreated cells assessed one day after cell seeding. The percentage (%) of relative inhibition of cell viability was calculated by comparing to DMSO-treated cells. IC50s were calculated using GraphPad PRISM software (GraphPad Software Inc.).
# MV4-11 = test: In vitro cytotoxicity (IC50) assay, alamarBlue; assay type: cell-based, human; conditions: MV4-11, AML M5
# Experimental: as §1
# THP-1 = test: In vitro cytotoxicity (IC50) assay, alamarBlue; assay type: cell-based; conditions: THP-1, AML M5
# Experimental: as §1
# REH = test: In vitro cytotoxicity (IC50) assay, alamarBlue; assay type: cell-based; conditions: B-ALL
# Experimental: as §1
# NALM-6 = test: In vitro cytotoxicity (IC50) assay, alamarBlue; assay type: cell-based; conditions: NALM-6, B-ALL
# Experimental: as §1
# RS4;11 = test: In vitro cytotoxicity (IC50) assay, alamarBlue; assay type: cell-based; conditions: RS4;11, B-ALL
# Experimental: as §1
# OCI-AML4 = test: In vitro cytotoxicity (IC50) assay, alamarBlue; assay type: cell-based; conditions: OCI-AML4, AML M4
# Experimental: as §1
# [1] = system: MV4-11 acute myeloid leukemia xenograft; test: MV4-11 xenograft tumor growth in SCID mice; assay type: in vivo; conditions: for tumor response by day 10: fumarate
# Experimental: The human acute myeloid leukemia cell line MV4-11 was acquired from American Type Culture Collection (Manassas, VA, USA) and grown in RPMI medium containing 100 units/mL penicillin G sodium, 100 μg/mL streptomycin sulfate. The media was supplemented with 10% heat-inactivated fetal bovine serum, 2 mM L-glutamine, and 0.11% sodium pyruvate. The tumor cells were maintained in a humidified environment of 5% CO2 and 95% air at 37° C. Cells were verified to be free of mouse pathogens by IMPACT IV PCR analysis (IDEXX RADIL, Colombia, MO, USA) before injection.
# Female SCID mice were purchased from the Ontario Cancer Institute and received and acclimated at the MaRS-TMDT Animal Resources Centre for 2 weeks prior to the start of the experiment. The mice were fed ad libitum autoclaved water and Rodent Lab Diet (Harlan Teklad LM-485) consisting of 19% crude protein, 5% crude fat, and 5% crude fiber. Mice were housed in microisolator cages and maintained in an environment with a 12-hour light cycle at 20-22° C. and 40-60% humidity. On the day of implantation, MV4-11 cells were harvested and resuspended with serum free DMEM to a concentration of 1×10^8/mL and each mouse was injected subcutaneously with a volume of 0.1 mL containing 1×10^7 MV4-11 cells in the right rear flank.
# Animals were dosed Compound (I) via oral gavage in a volume of 10 ml/kg. The animals were dosed with a 2.25 mm×50 mm curved gavage needle affixed to a 1 ml syringe. Vincristine was dosed by IP injection once per week.
# Toxicity was evaluated by body weight measurements and clinical observations. The mice were observed daily for overt signs of any adverse, treatment related side effects, and clinical signs of toxicity. Acceptable toxicity was set at a group mean body weight loss of less than 20% during the study and not more than one treatment related death in a group. Animals were monitored for body weights and tumor growth where tumor volumes were calculated using the formula: tumor volume=width^2×length/2.
# The study evaluated Compound (I) fumarate administered by oral gavage, either daily at 7.5 mg/kg or 2 days on/5 days off at 13.5 mg/kg, in comparison to the standard-of-care agent vincristine, dosed in 4 weekly intraperitoneal injections of 0.5 mg/kg, in the MV4-11 acute myeloid leukemia xenograft model in SCID (severe combined immunodeficiency) mice. Xenografts were established by subcutaneously injecting 1×10^7 tumor cells into the right flank of female SCID mice. Treatment was initiated 14 days following implantation when tumor volumes reached a mean volume of approximately 90 mm^3. […] Animals were dosed in the 2-on/5-off schedule for 21 days. […] By day 13, the average volume of the control tumors was 878 mm^3, averaging […] tumor growth over the 13 days. On day 13 the average tumor growth inhibition in the vincristine treated arm was 85% (p=0.14).
# [2] = Phase 1 dose-escalation study (NCT03187288); assay type: in vivo, human
# Experimental: This study (NCT number: NCT03187288) is a multi-center, phase 1, dose-escalation trial designed to assess the safety, tolerability, pharmacokinetics, and clinical benefit of treatment with Compound (I) fumarate administered orally over a range of doses in patients with acute myeloid leukemia (AML) or myelodysplastic syndrome (MDS) that is relapsed or refractory to current treatment or for which no curative therapy exists.
# Results: 9 patients with relapsed or refractory AML were treated with escalating doses of Compound (I) (64 mg to 128 mg) administered orally once daily. Among them, 3 patients were dosed at 64 mg, 4 patients were dosed at 96 mg, and 2 patients were dosed at 128 mg. Of six patients evaluable for response, two (33%) achieved complete remission (CR), and 3 patients (50%) had stable disease (with one patient having a 78% reduction in marrow blast count). The dose limiting toxicity (DLT) was determined to be colitis at the 128 mg dose level. […] However, only 4 patients were enrolled at the 96 mg dose level before the study was paused for enrollment and was amended.
# cancer cells = test: Compound (I) treatment of cancer cells (FIG. 1); assay type: cell-based
# Experimental: as §1
# [3] = system: complex karyotype (CK) AML cell lines; test: In vitro combination with standard of care agents; assay type: cell-based; conditions: in combination with Venetoclax (Bcl2 inhibitor) and 5-Azacytidine; multiple CK AML cell lines in vitro
# [4] = Homo sapiens, 72 h, 3 days, read-out: Compound (I) IC50
smiles,measurement,setting,value
"COc1ccc2c(c1)[C@]1(C[C@H]1c1ccc3c(/C=C/c4ccc(CN5C[C@@H](C)O[C@@H](C)C5)cc4)n[nH]c3c1)C(=O)N2 [Compound (I), (1R,2S)-2-(3-((E)-4-(((2S,6R)-2,6-dimethylmorpholino)methyl)styryl)-1H-indazol-6-yl)-5′-methoxyspiro[cyclopropane-1,3′-indolin]-2′-one]",pIC50,MOLT-4; [4],8.39
same,Response to Compound (I),MOLT-4,death
same,pIC50,MV4-11; [4],8.24
same,Response to Compound (I),MV4-11,death
same,pIC50,THP-1; [4],8.85
same,Response to Compound (I),THP-1,death
same,Response to Compound (I),REH,death
same,pIC50,REH; [4],8.29
same,Response to Compound (I),NALM-6,mitotic defects +
same,Response to Compound (I),RS4;11,mitotic defects +
same,Response to Compound (I),OCI-AML4,mitotic defects +
same,animals remained tumor-free until,"[1]; 2 days-on/5 days-off arm, 13.5 mg/kg",24 days
same,overall efficacy in MV4-11 xenograft model,[1]; SCID mice,very efficacious and potentially curative
same,animals remained tumor-free until,"[1]; daily dosing arm, 7.5 mg/kg",74 days
same,animals tumor free until last measurement time point,"[1]; daily dosing arm, Day 128",Four of 6
same,tumor response by day 10,[1]; oral 13.5 mg/kg 2-on/5-off,completely regressed tumors
same,tumor response by day 10,[1]; oral daily 7.5 mg/kg,completely regressed tumors
same,toxicity: reason daily dosing was halted,"[1]; oral daily 7.5 mg/kg, halted after 14 days",excessive body weight loss
same,dose limiting toxicity (DLT),"[2]; 128 mg dose level, orally once daily",colitis
same,patients with stable disease,"[2]; 3 of six evaluable patients, 64 mg to 128 mg orally once daily",50%
same,effect on outcome of a patient,[2]; a patient with CK AML,positively affected the outcome
same,reduction in marrow blast count,[2]; one patient with stable disease,78%
same,single agent clinical activity,[2]; patients with poor risk AML,has activity
same,patients achieving complete remission (CR),"[2]; two of six evaluable patients, 64 mg to 128 mg orally once daily",33%
same,effect of treatment on cancer cells,cancer cells,aberrant mitoses leading to death or arrest
same,combination activity,[3],additive/synergistic activity
